Experimental findings from article PMC5008373, “Pantoprazole, an FDA-approved proton-pump inhibitor, suppresses colorectal cancer growth by targeting T-cell-originated protein kinase” (Oncotarget, 2016) are described below.

Assay type in all cases: binding
The target in assay [1] is T1, T-cell-originated protein kinase (TOPK) (Homo sapiens, UniProt Q96KB5).
T1 construct: gene PBK
T1 sequence (Q96KB5 1-322): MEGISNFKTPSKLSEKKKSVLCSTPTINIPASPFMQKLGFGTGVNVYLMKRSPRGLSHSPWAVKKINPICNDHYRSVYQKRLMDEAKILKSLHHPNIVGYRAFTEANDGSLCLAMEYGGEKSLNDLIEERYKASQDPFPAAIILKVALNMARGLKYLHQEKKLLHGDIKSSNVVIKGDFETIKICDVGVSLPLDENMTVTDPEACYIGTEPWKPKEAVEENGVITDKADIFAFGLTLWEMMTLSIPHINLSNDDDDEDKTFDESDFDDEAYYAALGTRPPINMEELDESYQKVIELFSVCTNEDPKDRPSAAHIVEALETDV
Nature of the assay: biochemical.

Assay [2] addresses T1, T-cell-originated protein kinase (TOPK). Nature of the assay: microscale thermophoresis with labeled recombinant TOPK; also in vitro kinase assay (histone H3 phosphorylation). Particulars: read-out: Dissociation constant with TOPK / Kd^b. (In general: MST reads how a fluorescent partner responds to local heating, with and without ligand.)
Assay [3] shares this target. Nature of the assay: microscale thermophoresis with labeled recombinant TOPK (reference inhibitor). The conditions noted are these: read-out: Dissociation constant with TOPK / Kd^b.
Setting [4] is: read-out: Dissociation constant with TOPK / Kd^b.

Consider `CC(=O)Nc1ccc(OCC(O)CNC(C)C)cc1` (centres unmarked) [Practolol], for which the Kd in assay [1] (setting [4]) came to 226 ± 29.5 µM. With `O=C(O)c1cc(/N=N/c2ccc(S(=O)(=O)Nc3ccccn3)cc2)ccc1O` [Sulfasalazine], in assay [1], the Kd is 339 ± 7.7 µM. For `COc1ccnc(C[S+]([O-])c2nc3ccc(OC(F)F)cc3[nH]2)c1OC` (centres unmarked) [Pantoprazole], the Kd in assay [2] came to 24.2 ± 2.3 µM. Consider `NC(CO)C(=O)NNCc1ccc(O)c(O)c1O` (centres unmarked) [Benserazide], for which, in assay [1] (setting [4]), the Kd is 477 ± 19.9 µM. Consider `N#Cc1c2nc3ccccc3nc2n2ccc(NC(=O)c3cccs3)cc12` [HI-TOPK-032], for which the Kd in assay [3] amounted to 327 ± 62.7 µM.
